One experiment concerns the target T1, HA-tagged CRHR2a (Homo sapiens, UniProt Q13324).
T1 construct: expressed in transfected cells; host or cells: HEK293 cells, transient transfection with pcDNA3.1(+) plasmid using Lipofectamine 3000
T1 sequence (Q13324 1-411): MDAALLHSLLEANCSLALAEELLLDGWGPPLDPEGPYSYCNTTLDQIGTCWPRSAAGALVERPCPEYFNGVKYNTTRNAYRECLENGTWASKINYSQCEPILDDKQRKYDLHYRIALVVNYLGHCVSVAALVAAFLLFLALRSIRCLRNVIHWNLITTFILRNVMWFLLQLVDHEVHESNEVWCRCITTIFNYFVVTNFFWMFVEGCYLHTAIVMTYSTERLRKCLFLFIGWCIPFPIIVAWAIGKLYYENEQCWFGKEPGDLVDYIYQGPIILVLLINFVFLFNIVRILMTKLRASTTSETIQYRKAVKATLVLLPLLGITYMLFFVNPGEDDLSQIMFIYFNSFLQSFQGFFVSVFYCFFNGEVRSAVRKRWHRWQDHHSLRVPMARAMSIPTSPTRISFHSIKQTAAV
Nature of the experiment: CRHR2 surface expression / internalization, confocal imaging of HEK293 cells with HA-tagged CRHR2a. The conditions noted are these: 100 nM UCN2, HEK cells with HA-tagged CRHR2a; n = 4. Type of experiment: cell-based. As for the experimental part: β-Arrestin recruitment can sometimes cause the internalization of the receptor to which it is recruited. To assess whether CRHR2 is internalized following UCN2 treatment, we quantified CRHR2 receptor surface expression using confocal imaging of HEK cells transiently transfected with a plasmid expressing a […] CRHR2a construct (Fig. S3). Cells were treated with saline or 100 nM (−7.0 log[M]) UCN2 and surface expression was determined by fluorescent anti-HA antibody-binding, with and without permeabilizing the cell.
HEK293 cells were plated at a density of 10,000 cells per well into tissue culture-treated clear bottomed, optical microscopy quality, 96 well plates (Perkin Elmer, PhenoPlate 96-well) and grown for 1 day to ~40–60% confluency. Twenty-four hours after plating, cells were transfected with 50 ng of pcDNA3.1(+) plasmid encoding a N-terminally tagged CRHR2α construct using Lipofectamine 3000 (Thermofisher) following manufacturing protocols. Twenty-four hours following transfection, agonists were then added for 30 min and cells were incubated at 37 °C. Prior to imaging, cells were washed once with PBS and fixed with ice-cold 4% paraformaldehyde in PBS for 15 min. After washing 3 times with PBS, cells were kept in the Alexa Fluor 647 anti-HA (1:2000 dilution, BioLegend cat# 682404) diluted in 5% normal goat serum in PBS. […]

The test system of a further experiment is male mice. The experiment in a line: Plasma insulin during glucose tolerance test. The experiment is classed as in vivo, mouse. Particulars: 1 mg/kg IP UCN2. As for the experimental part:
All metabolic tests were performed using standard protocols on male littermates (aged: 10–14 weeks). For glucose tolerance tests (GTTs), animals were fasted for 8 h with ad libitum access to water. Fasting glucose measurements were taken before […] oral glucose dose. Blood glucose measurements were taken via tail nick using the AlphaTRAK 2 Glucose Monitoring System (Zoetis, Parsippany-Troy Hills, NJ) at 10, 30, 60, and 120 min after dose. Blood was collected for insulin measurement in EDTA tubes (Becton, Dickinson and Company, Franklin Lakes, NJ) and centrifuged to collect plasma (2000 g for 10 min at 4 °C), which was stored at −80 °C until analysis at 10, 30, 60, and 120 min after dose. Insulin levels were measured using an Ultrasensitive Mouse Insulin ELISA (ALPCO, Salem, NH), according to manufacturer’s instructions. For insulin tolerance tests (ITTs), animals were fasted for 8 h and blood glucose was measured before (0 min) and at 30, 60, 90, and 120 min following IP injection of 0.75 IU/kg of insulin (Humulin R, Eli Lilly, Indianapolis, IN). […]

Experiment [1] relates to soleus and gastrocnemius muscle. Nature of the experiment: In vivo [3H]2-deoxyglucose uptake in soleus and gastrocnemius muscle. Also noted: species or system mouse. Particulars: [3H]2DG; for 2DG Uptake, gastrocnemius muscle: individual animals (Fig. 2I); for 2DG Uptake, soleus muscle: individual animals (Fig. 2J). As for the experimental part:
To determine 2-deoxy-glucose (2DG) uptake in soleus and gastrocnemius muscle, mice were fasted for 5 h and anaesthetized with isoflurane. […] 15 min following 2DG administration, blood was collected via intracardiac stick and soleus and gastrocnemius muscles were dissected and snap frozen in liquid nitrogen. Samples were stored at −80 C until processing. Blood was treated with BaOH2 and ZnSO4 and after centrifugation, radioactivity was determined via liquid scintillation counting (Tri-Carb 5110TR, PerkinElmer, Waltham, MA). Tissue was homogenized and mixed with water or BaOH2 and ZnSO4 to determine total and unphosphorylated 2DG content.

The subject of a further experiment is mouse soleus muscle. The experiment in a line: Ex vivo soleus muscle [3H]2-deoxyglucose uptake. As for the experimental part: Soleus muscle was removed from fed animals anesthetized by an intraperitoneal injection of pentobarbital (10 mg/100 g body weight). Dissected soleus muscles were suspended at 5 mN of tension in incubation chambers (Model 610/820 M, Danish Myo-Technology, Denmark) containing Krebs-Ringer-Buffer supplemented with 0.1% BSA, 2 mM pyruvate and 8 mM Mannitol. During the entire incubation period the KRB was maintained at 30 °C and oxygenated with 95% O2 and 5% CO2. Following 10 min of pre-incubation muscles were incubated in Krebs buffer +/− 100 nM (−7.0 log[M]) UCN2. At the next time point, 30 min later, muscles were placed in baths containing Krebs buffer +/− 100 nM (−7.0 [M]) UCN2. At the next time point, 15 min later, muscles were placed in baths containing Krebs buffer +/− 100 nM (−7.0 log[M]) UCN2 + /− 60 nM Insulin (Actrapid, Novo Nordisk, Bagsvaerd, Denmark) for 15 min. For the ex vivo glucose uptake studies, 1 mM [^3H]2-deoxyglucose (Perkin-Elmer) and 7 mM [^14C]mannitol (Perkin-Elmer) was also added at this time. Muscles that were in saline in the first bath, saline in the second bath, and saline in the third bath were assigned to the SSS group. Muscles that were in saline in the first bath, saline in the second bath, and UCN2 in the third bath were assigned to the SSU group. Muscles that were in UCN2 in the first bath, saline in the second bath, and UCN2 in the third bath were assigned to the USU group. Muscles that were in saline in the first bath, UCN2 in the second bath, and UCN2 in the third bath were assigned to the SUU group. Following incubation, muscles were harvested, washed in ice-cold KRB and immediately frozen in liquid nitrogen.
Glucose uptake was determined in muscle protein lysates by assessing the accumulation of [^3H]2-deoxyglucose with the use of [^14C]mannitol to correct for the extracellular space. Radioactivity was measured by liquid scintillation counting.

[2] abbreviates: UCN2 1 mg/kg IP +Insulin 0.75 IU/kg.
Setting [3] is: UCN2 1 mg/kg IP +Veh (no insulin).

Several values for one entry are separate records, joined by “and”; a condition that tells them apart may be missing. Equal entries are not always repeated. Where no end group is shown, it is not given here.

As for “IVLSLDVPIGLLQILLEQARARAAREQATTNARILARVGHC-NH2 (C-terminus assumed) [UCN2, Urocortin 2]”, the “CRHR2 internalization / surface receptor expression” value on HA-tagged CRHR2a is “increase of CRHR2 internalization and decreased surface receptor expression”. For the same substance, in the experiment on male mice, the “plasma insulin levels during the oGTT versus vehicle” value is “No significant difference”. Besides, the “2DG Uptake, gastrocnemius muscle” value in experiment [1] (setting [2]) is 17.97 µmol/g/h and 16.61 µmol/g/h and 11.65 µmol/g/h and 22.6 µmol/g/h and 21.1 µmol/g/h and 20.95 µmol/g/h and 16.15 µmol/g/h and 12.85 µmol/g/h; in experiment [1] (setting [3]), 2.37 µmol/g/h and 2.36 µmol/g/h and 2.81 µmol/g/h and 1.95 µmol/g/h and 2.97 µmol/g/h and 3.08 µmol/g/h and 2.83 µmol/g/h and 3.26 µmol/g/h. Moreover, the “2DG Uptake, soleus muscle” value is 25.34 µmol/g/h and 15.14 µmol/g/h and 16.51 µmol/g/h and 20.54 µmol/g/h and 24.42 µmol/g/h and 24.35 µmol/g/h and 25.91 µmol/g/h and 18.85 µmol/g/h in experiment [1] (setting [2]); 2.44 µmol/g/h and 2.26 µmol/g/h and 2.42 µmol/g/h and 2.39 µmol/g/h and 2.31 µmol/g/h and 2.62 µmol/g/h and 3.69 µmol/g/h in experiment [1] (setting [3]). Also, in the experiment on mouse soleus muscle (Fig 6C, UCN2 without insulin, individual muscles), the “2DG Uptake” value is 0.55 µmol/g/h and 1.85 µmol/g/h and 0.61 µmol/g/h and 0.24 µmol/g/h and 0.63 µmol/g/h. In addition, the “insulin-mediated glucose uptake, acute treatment ex vivo” value in the experiment with mouse soleus muscle (soleus muscle, 100 nM UCN2, 60 nM insulin) is given as “sufficient to blunt insulin-mediated glucose uptake”. Also, the “insulin-mediated glucose uptake after UCN2 pre-treatment ex vivo” value with mouse soleus muscle (soleus muscle, 100 nM UCN2 pre-treatment (SUU, USU) versus acute (SSU)) is reported as “increased insulin-mediated glucose uptake relative to acute UCN2 treatment”.

Values taken from paper PMC10319809, “Chronic UCN2 treatment desensitizes CRHR2 and improves insulin sensitivity” (Nature Communications, 2023).
